Earlier results in US20260110003A1 (Solugen, Inc., priority 2022, published 2026).
Blank lines part the entries; values can stand above or below the molecule they belong to.

Assays:
[1] = for Prefers Phase: aqueous (Aq) or organic (Org) phase in the MPER; for LogP: partition coefficient, <0 preference for aqueous, >0 for organic
[2] = relative to VvSucA

Prefers Phase [1]: Aq | LogP [1]: −0.3
Molecule: CC(=O)C(=O)O [Pyruvic Acid]

Prefers Phase [1]: Aq | LogP [1]: <<0
Molecule: CC(=O)C(=O)O [Pyruvate ion]

The next lines start with the molecule.

Molecule: CCO [Ethanol]
Prefers Phase [1]: Both

Molecule: CCOC(=O)C(C)=O [Ethyl Pyruvate]
Prefers Phase [1]: Org | LogP [1]: 0.4

Molecule: CC=O [Acetaldehyde]
Prefers Phase [1]: Aq | LogP [1]: −0.34

B1: ZmPDC: Zymomonas mobilis pyruvate decarboxylase (protein, UniProt P06672 1-568, looked up)
Pyruvate decarboxylase: MSYTVGTYLAERLVQIGLKHHFAVAGDYNLVLLDNLLLNKNMEQVYCCNELNCGFSAEGYARAKGAAAAVVTYSVGALSAFDAIGGAYAENLPVILISGAPNNNDHAAGHVLHHALGKTDYHYQLEMAKNITAAAEAIYTPEEAPAKIDHVIKTALREKKPVYLEIACNIASMPCAAPGPASALFNDEASDEASLNAAVEETLKFIANRDKVAVLVGSKLRAAGAEEAAVKFADALGGAVATMAAAKSFFPEENPHYIGTSWGEVSYPGVEKTMKEADAVIALAPVFNDYSTTGWTDIPDPKKLVLAEPRSVVVNGIRFPSVHLKDYLTRLAQKVSKKTGALDFFKSLNAGELKKAAPADPSAPLVNAEIARQVEALLTPNTTVIAETGDSWFNAQRMKLPNGARVEYEMQWGHIGWSVPAAFGYAVGAPERRNILMVGDGSFQLTAQEVAQMVRLKLPVIIFLINNYGYTIEVMIHDGPYNNIKNWDYAGLMEVFNGNGGYDSGAGKGLKAKTGGELAEAIKVALANTDGPTLIECFIGREDCTEELVKWGKRVAAANSRKPVNKLL
more acetoin produced than VvSucA [2]: 57%
